Entries after “also recorded” stand apart in the source; their conditions may differ.

For one experiment, the target named is T1, P protein (Thermotoga maritima, UniProt Q9X1H4).
T1 construct: GST (cleaved yes); made in house; host or cells: E. coli BL21(DE3)pLysS
T1 sequence (Q9X1H4 1-117): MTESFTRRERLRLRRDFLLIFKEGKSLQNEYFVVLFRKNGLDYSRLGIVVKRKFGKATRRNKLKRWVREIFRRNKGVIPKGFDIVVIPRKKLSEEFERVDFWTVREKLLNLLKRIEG
Nature of the experiment: Binding hindrance of the 5′ RNA leader to the P protein (BLI). Details: species or system T. maritima. To be noted: compound 100 μM, 5′ RNA leader 5 μM. Here is the method:
A 5′ RNA leader sequence with 10-bases 5′-GGAAAAAGAU-3′ was purchased from IDT and used at a concentration of 5 μM. This sequence is the same used to obtain the crystal structure of the RNase P holoenzyme ([19]). The His-tagged P protein was immobilized on Ni-NTA biosensors at 0.05 mg/ml (3.4 μM). […] The steps performed on the assay and their periods were: P protein immobilization (400 s), wash (100 s), baseline […] (1000 rpm), compound association (800 s), compound dissociation (200 s) (500 rpm), baseline (100 s), 5′ leader association (200 s), 5′ leader dissociation (200 s) (1000 rpm). The assay was performed at 30°C. The compounds were used at 100 μM throughout. All assay steps were performed in 20 mM HEPES pH 7.4, 100 mM ammonium acetate, 10 mM MgCl2, 5% DMSO.
5 ′ RNA leader. (A) Experimental design of 5′ RNA leader binding hindrance experiments. Figures B-F are based on the analysis region depicted in panel A, where association and dissociation of the 5′ RNA leader to the P protein (TmP) is measured over time. P protein at 3.5 µM was immobilized on Ni-NTA biosensors for 300 s, while compounds were assayed at 100 µM and the […]
binding, in contrast with hematein (E) and purpurin (F).
(1 picture or pasted object on this page, not shown here)

Experiment [1] has as its system P RNA. Nature of the experiment: Gel-based activity assay, bipartite pre-tRNA substrate, P RNA alone. The class given is biochemical, T. maritima. To be noted: 100 mM AmOAc, 10 mM MgCl2. Here is the method: (§1) For gel-based activity assays, reactions were prepared as described in the previous section (fluorescence activity assay), incubated for 1–15 min at 37–50°C, then loaded onto a denaturing 7 M urea–20% acrylamide gel in the case of the Mh substrate or 19% acrylamide (40% acrylamide/bisacrylamide 38.5:1.5) for the bipartite pre-tRNA substrate. The activity conditions for the gel reported in Figure 3A, to monitor the cleavage of the holoenzyme and P RNA, were under 100 mM AmOAc and 10 mM MgCl2. The gels (13 × 16 × 0.15 cm) were electrophoresed at 20 V/cm for 2–3 h. UV shadowing or ethidium bromide staining was used to visualize RNA cleavage. Detection of minihelix fluorescence was achieved without staining using a UV lamp with excitation at ∼254 nm.
Figure 3. The inhibitors purpurin and hematein bind to the holoenzyme. (A) Top. […] Bottom. […] (B) The relative affinities of the inhibitors for the P RNA or the holoenzyme differ. Binding sensorgrams obtained by biolayer interferometry (BLI). P RNA or RNase P holoenzyme was immobilized on super streptavidin (SSA) biosensors through a 5′-biotinylated RNA oligonucleotide complementary to a region on the P1 stem of P RNA (see Materials and Methods). […] In contrast, gentian violet binds not only to P RNA but also to the Mh substrate (Supplementary Figure S16). (C) Molecular Dynamics (MD) simulations of RNase P protein in complex with the validated inhibitors. In each panel, semitransparent spheres represent the geometric center, over a 200 ns trajectory, of the corresponding tested compound. The 5′-leader (yellow) is shown for reference purposes only; it was not included in the simulation. Sphere color coding indicates the starting and final positions in blue and red, respectively. […] Purpurin's starting conformation corresponds to that observed in the crystal structure in complex with the P protein (PDB code: 6MAX. See Figure 5).

Experiment [2] addresses T2, RNase P holoenzyme (Thermotoga maritima, UniProt Q9X1H4).
T2 construct: GST (cleaved yes); made in house; host or cells: E. coli BL21(DE3)pLysS
T2 sequence (Q9X1H4 1-117): T1 sequence (Q9X1H4 1-117)
Nature of the experiment: Displacement of pre-tRNA from the holoenzyme (BLI). The class given is binding, T. maritima. To be noted: holoenzyme on Ni-NTA biosensors, compound 0–400 μM, then pre-tRNA. Here is the method:
(§2) Real-time binding assays of the holoenzyme, P RNA, P protein, the substrate minihelix and the 5′-leader to individual compounds were performed by biolayer interferometry using an Octet RED96 system (ForteBio). For the holoenzyme or P RNA, a 5′ biotinylated RNA oligonucleotide with the sequence 5′biotin-CAUUCCAGACGAU was immobilized on Super Streptavidin (SSA) biosensors. Then, a modified P RNA or holoenzyme was added. The P RNA modification consisted of a sequence with part of the P1 stem sequence complementary to the biotinylated oligonucleotide (AUCGUCUGGA) (Supplementary Figure S23A). P1 is far from the active site or other regions involved in specific interactions (Supplementary Figure S23B) ([19]). The activity of this construct was indistinguishable from the wild-type holoenzyme. Alternatively, the holoenzyme was immobilized through the His-tagged P protein from T. maritima at 0.05 mg/ml (3.4 μM) on Ni-NTA biosensors. Control biosensors were used to subtract non-specific binding of compounds to the biosensor surface. All assay steps (immobilization, wash, baseline, association, and dissociation) were performed in 20 mM HEPES pH 7.4, 100 mM ammonium acetate, 10 mM MgCl2, 2.5% DMSO. The assays were performed on black bottom 96-well microplates (Greiner Bio-One 655209) in a total volume of 200 μl, at 30°C with orbital shaking at 1000 rpm. Experiments were controlled with the software Data Acquisition 8.2 (ForteBio, Inc.). Kinetic binding parameters were calculated using Data Analysis 8.2 (ForteBio, Inc.). After subtraction of reference biosensors, the binding curves were aligned to the X- and Y-axis and the association-dissociation inter-step curve in order to get a common baseline for the association and dissociation phases.
Figure 4. Characterization of the inhibition of T. maritima RNase P by purpurin. (A) Best global fit for inhibition of RNase P in the presence of varying concentrations of fluorescent Mh substrate. […] Symbols represent the mean ± standard error as determined from three independent experiments at each concentration. See also Supplementary Figure S18. […] Binding sensorgrams obtained by biolayer interferometry (BLI). RNase P holoenzyme at 400 nM was immobilized on Ni-NTA. […] Binding sensorgrams obtained by biolayer interferometry (BLI). RNase P holoenzyme was immobilized on Ni-NTA biosensors, incubated with purpurin at varying concentrations (0–400 μM), and then the association and dissociation pre-tRNA was monitored. […] See also Supplementary Figure S17.

The test system of experiment [3] is P RNA. Nature of the experiment: Biolayer interferometry binding to immobilized P RNA. Details: species or system T. maritima. Conditions: BLI, P RNA on SSA biosensors via biotinylated oligonucleotide. Here is the method: as §2
Figure 3. The inhibitors purpurin and hematein bind to the holoenzyme. (A) Top. […] Bottom. […] (B) The relative affinities of the inhibitors for the P RNA or the holoenzyme differ. Binding sensorgrams obtained by biolayer interferometry (BLI). […]

The target of experiment [4] is T2, RNase P holoenzyme. The experiment can be described thus: Gel-based activity assay, bipartite pre-tRNA substrate, holoenzyme. The class given is biochemical, T. maritima. Conditions: 100 mM AmOAc, 10 mM MgCl2. Here is the method: as §1
Figure 3. The inhibitors purpurin and hematein bind to the holoenzyme. (A) Top. […] Bottom. […] (B) The relative affinities of the inhibitors for the P RNA or the holoenzyme differ. Binding sensorgrams obtained by biolayer interferometry (BLI). P RNA or RNase P holoenzyme was immobilized on super streptavidin (SSA) biosensors through a 5′-biotinylated RNA oligonucleotide complementary to a region on the P1 stem of P RNA (see Materials and Methods). […] In contrast, gentian violet binds not only to P RNA but also to the Mh substrate (Supplementary Figure S16). […]

As for `O=C1C=CC(=O)c2c(O)cccc21` [Juglone, 5-hydroxy-1,4-naphthoquinone], on P protein, the “Hindrance of 5′ RNA leader binding to the P protein” value (from here on “Hindrance … to the P protein”) is listed as “do not impede the leader binding”. In the experiment with P RNA [1], the “Inhibition of the P RNA reaction” value is on record as “less clear behavior”. Further, the “Dose–response displacement of pre-tRNA” value on RNase P holoenzyme [2] is recorded as “No”.

On to `O=C1C=C2CC3(O)COc4c(ccc(O)c4O)C3=C2C=C1O` (stereo not drawn) [Hematein, 3,4,6a,10-tetrahydroxy-6a,7-dihydroindeno[2,1-c]chromen-9(6H)-one], for which the “Hindrance … to the P protein” value on P protein is reported as “hinder the binding of the P protein”; on P protein (listed as hematein) it was “displayed leader-binding hindrance”. Further, the “Binding to P RNA” value in the experiment on P RNA [3] was “binds only slightly to P RNA”. The “Inhibition of the holoenzyme reaction” value on RNase P holoenzyme [4] is recorded as “inhibit the reaction catalyzed by the RNase P holoenzyme”. For the same molecule, the “Inhibition of the P RNA reaction” value in the experiment with P RNA [1] was “not the P RNA alone”. Besides, on RNase P holoenzyme [2], the “Dose–response displacement of pre-tRNA” value is reported as “No”.

Regarding `O=C1c2ccccc2C(=O)c2c(O)c(O)cc(O)c21` [Purpurin, 1,2,4-trihydroxyanthraquinone], the figures for the “Hindrance … to the P protein” value at P protein and on P protein (listed as purpurin) were “hinders the binding of the P protein to the 5′ RNA leader” and “hinder the binding of the P protein; also recorded: interferes with the binding of the leader to the P protein”, respectively. Further, the “Binding to P RNA” value with P RNA [3] is “does not bind to P RNA”. Besides, at RNase P holoenzyme [4], the “Inhibition of the holoenzyme reaction” value is recorded as “inhibit the reaction catalyzed by the RNase P holoenzyme”. The “Inhibition of the P RNA reaction” value in the experiment on P RNA [1] was “not the P RNA alone”. For the same molecule, the “Dose–response displacement of pre-tRNA” value on RNase P holoenzyme [2] is “displaces bound pre-tRNA in a dose-response behavior and Yes”.

The values are drawn from article PMC6614837 (Nucleic Acids Research, 2019).
